Values after ≈ are worked out from the molar mass of the structure shown.
Key:
AcpS enzyme = AcpS enzyme (Escherichia coli, UniProt P24224); assay: Measurement of AcpS inhibition ([3H]acetyl-CoA incorporation into apo-ACP); assay type: biochemical; details: % activity vs blank-subtracted counts; for activity at 50 µM / % AcpS activity at 50 uM: test compound 50 uM; for remaining activity at 500 µM / % AcpS activity @ 500 uM: test compound 500 uM
Protocol: [^3H]Acetyl-CoA was mixed as 1 volume of Perkin Elmer NET290 radiolabeled stock (e.g. 0.1 mCi/ml, 3.7 Ci/mmol in Na-acetate, pH 4.5-5.0=27 μM) with 1.2 volumes of 1 mM unlabelled acetyl-CoA (Sigma). Trichloroacetic acid was prepared as a 10% w/v solution. Bovine serum albumin was prepared as a 25 mg/ml solution in water. DTT was prepared as a 50 mM solution in water.
• 1. A standard reaction contained the following in a total volume of 10 μl:
• 2. Tubes were incubated at RT. [^3H]acetyl-CoA was added last to start the reaction. To stop the reaction, 2 μl was removed to a 1.5-ml microfuge tube containing 800 μl cold 10% TCA. Up to four time points were collected for each reaction, e.g. at 5 min, 10 min, 30 min, and 60 min. • 3. 20 μl of 25 mg/ml BSA was added to each tube, mixed and incubated on ice for 10 min, then centrifuged at 12,000 g for 5 min to form a pellet. Supernatant was removed using P1000. • 4. Each pellet was washed twice with 800 μl of cold 10% TCA each time, then centrifuged at 12,000 g for 5 min after each wash. The supernatant was discarded. Each pellet was resuspended in 50 μl of formic acid. The suspension was transferred to a scintillation vial and radioactivity was measured in 2 ml of liquid scintillation cocktail.
The random (stochastic) error in scintillation counting is proportional to the square root of the counts (not dpm) accumulated in the counting period; i.e. 10% for 100, 3.3% for 1,000, 1% for 10,000, etc. Provided radioactive counts (dpm) are in the thousands, the assay provides useful data. Results are reported in terms of % activity with respect to the blank-subtracted counts for working substrate. A % activity of less than about 40% is indicative of AcpS enzyme inhibition by the test compound at that concentration.

E. coli D22 = assay: MIC, NCCLS M7-A6 broth microdilution, E. coli D22; assay type: cell-based; details: 35 degrees Celsius; for MIC: Escherichia coli, D22, 16 to 20 h; for MIC E coli D22: 16 to 20 h
Protocol: (§1) Susceptibilities to the compounds were determined using the National Committee for Clinical Laboratory Standards (NCCLS) M7-A6 broth microdilution method. Cation-adjusted Mueller-Hinton broth (Ca^2+, 25 μg/mL; Mg^2+, 12.5 μg/mL) microdilution panels were prepared to contain antimicrobial doubling dilution concentrations of an appropriate range. DMSO (dimethylsulfoxide) controls were incorporated into the panel to mimic the quantity of DMSO used in dissolving some of the compounds at the higher concentrations. Each final panel well volume was 100 μL with a bacterial inoculum of 5×10^5 CFU (colony forming units)/mL of the relevant bacterium. Panels were read following 16 to 20 h of incubation at 35 degrees Celsius in ambient air. The MIC (minimum inhibitory concentration) was defined as the lowest concentration of antimicrobial inhibiting visible growth.

[1] = tested on: Methicillin-Resistant Staph. aureus (MRSA); assay: MIC, NCCLS M7-A6 broth microdilution, MRSA; assay type: cell-based; details: 16 to 20 h, 35 degrees Celsius; for MIC: Staphylococcus aureus, MRSA
Protocol: as §1

Chain of AcpS enzyme (P24224 whole entry): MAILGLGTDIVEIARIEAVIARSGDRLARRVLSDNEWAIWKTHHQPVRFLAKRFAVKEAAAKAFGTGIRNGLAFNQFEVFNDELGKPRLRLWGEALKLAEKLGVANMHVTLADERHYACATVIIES

| Compound | activity at 50 µM (AcpS enzyme) [%] | remaining activity at 500 µM (AcpS enzyme) [%] | MIC (E. coli D22) [µM] | MIC [1] [µM] | % AcpS activity at 50 uM (AcpS enzyme) [%] | % AcpS activity @ 500 uM (AcpS enzyme) [%] | MIC E coli D22 (E. coli D22) [µM] | MIC MRSA [1] [µM] |
| --- | --- | --- | --- | --- | --- | --- | --- | --- |
| Cc1ccc(-c2cc(-c3nnn[nH]3)sc2-c2ccc(C)c(C)c2)cc1C [DNM0509, 5-(4,5-Bis(3,4-dimethylphenyl)thiophen-2-yl)-1H-tetrazole] | 31.1 | 0.2 | > 125 | 15 (≈ 5.41 µg/mL) | – | – | – | – |
| CN(C)c1ccc(Cl)cc1-c1cc(-c2nn[nH]n2)cc(-c2cc(Cl)ccc2N(C)C)c1 [DNM0510] | – | – | – | – | 8.4 | 0.12 | >125 | 4 (≈ 1.81 µg/mL) |
| Cc1ccc(-c2cc(-c3nn[nH]n3)cc(-c3ccc(C)cc3Br)c2)c(Br)c1 [DNM0511] | – | – | – | – | 14.36 | 0 | >125 | 8 (≈ 3.87 µg/mL) |
| CC(C)c1ccc(-c2cc(-c3nnn[nH]3)sc2-c2ccc(C(C)C)cc2)cc1 [DNM0512, 5-(4,5-Bis(4-isopropylphenyl)thiophen-2-yl)-1H-tetrazole] | 37.3 | 0.7 | > 125 | 8 (≈ 3.11 µg/mL) | – | – | – | – |
| Cc1ccc(-c2cc(-c3nn[nH]n3)cc(-c3cc(Cl)ccc3N(C)C)c2)c2ccccc12 [DNM0514] | – | – | – | – | 5.73 | 0.14 | >125 | 4 (≈ 1.76 µg/mL) |
| Cc1ccc(-c2cc(-c3nn[nH]n3)cc(-c3ccc(C)cc3-c3ccccc3)c2)c(-c2ccccc2)c1 [DNM0516] | – | – | – | – | 32.01 | 5 | >125 | 2 (≈ 0.957 µg/mL) |
| Cc1ccc(-c2cc(-c3nn[nH]n3)cc(-c3ccc(C)cc3-c3cccc(Cl)c3)c2)c(-c2cccc(Cl)c2)c1 [DNM0520] | – | – | – | – | – | 20.86 | >125 | 2 (≈ 1.09 µg/mL) |
| Cc1ccccc1-c1cc(-c2nn[nH]n2)cc(-c2ccccc2C)c1 [DNM0529] | – | – | – | – | 91.56 | 0.16 | >125 | 30 (≈ 9.79 µg/mL) |
| Cc1ccccc1-c1cc(-c2nnn[nH]2)sc1-c1ccccc1C [DNM0531, 5-(4,5-Bis(2-methylphenyl)thiophen-2-yl)-1H-tetrazole] | 96.8 | 4.38 | > 125 | 60 (≈ 19.9 µg/mL) | – | – | – | – |
| CC(C)c1ccccc1-c1cc(-c2nn[nH]n2)cc(-c2ccccc2C(C)C)c1 [DNM0532] | – | – | – | – | 30.66 | 0.22 | >125 | 60 (≈ 23 µg/mL) |
| CC(C)c1ccccc1-c1cc(-c2nnn[nH]2)sc1-c1ccccc1C(C)C [DNM0534, 5-(4,5-Bis(2-isopropylphenyl)thiophen-2-yl)-1H-tetrazole] | 34 | 0 | > 125 | 8 (≈ 3.11 µg/mL) | – | – | – | – |
| c1ccc(-c2cc(-c3nnn[nH]3)sc2-c2ccccc2)cc1 [DNM0535] | – | – | – | – | 92.62 | 3.48 | >125 | 125 (≈ 38 µg/mL) |
| c1ccc(Oc2ccccc2-c2cc(-c3nnn[nH]3)sc2-c2ccccc2Oc2ccccc2)cc1 [DNM0536, 5-(4,5-Bis(2-phenoxyphenyl)thiophen-2-yl)-1H-tetrazole] | 8.25 | 0.2 | 125 (≈ 61.1 µg/mL) | 8 (≈ 3.91 µg/mL) | – | – | – | – |
| Clc1ccccc1-c1cc(-c2nnn[nH]2)sc1-c1ccccc1Cl [DNM0538, 5-(4,5-Bis(2-chlorophenyl)thiophen-2-yl)-1H-tetrazole] | 82.2 | 0.58 | > 125 | 30 (≈ 11.2 µg/mL) | – | – | – | – |
| Fc1ccc(-c2cc(-c3nn[nH]n3)cc(-c3ccc(F)c4ccccc34)c2)c2ccccc12 [DNM0539, 5-(3,5-Bis(4-fluoronaphthalen-1-yl)phenyl)-2H-tetrazole] | – | 39.4 | > 125 | 8 (≈ 3.48 µg/mL) | – | – | – | – |
| CCc1ccccc1-c1cc(-c2nnn[nH]2)sc1-c1ccccc1CC [DNM0541, 5-(4,5-Bis(2-ethylphenyl)thiophen-2-yl)-1H-tetrazole] | 63.1 | 0.3 | > 125 | 30 (≈ 10.8 µg/mL) | – | – | – | – |
| c1ccc2c(c1)oc1c(-c3cc(-c4nnn[nH]4)sc3-c3cccc4c3oc3ccccc34)cccc12 [DNM0542, 5-(4,5-Bis(dibenzo[b,d]furan-4-yl)thiophen-2-yl)-1H-tetrazole] | 9.58 | 0.7 | > 125 | 2 (≈ 0.969 µg/mL) | – | – | – | – |
| CC(C)(C)c1ccc(-c2cc(-c3nnn[nH]3)sc2-c2ccc(C(C)(C)C)cc2)cc1 [DNM0546, 5-(4,5-Bis(4-tert-butylphenyl)thiophen-2-yl)-1H-tetrazole] | 37.2 | 5.16 | > 125 | 4 (≈ 1.67 µg/mL) | – | – | – | – |
| FC(F)(F)c1ccccc1-c1cc(-c2nnn[nH]2)sc1-c1ccccc1C(F)(F)F [DNM0549, 5-(4,5-Bis(2-(trifluoromethyl)phenyl)thiophen-2-yl)-1H-tetrazole] | 71.3 | 0.48 | > 125 | 30 (≈ 13.2 µg/mL) | – | – | – | – |
| FC(F)(F)Oc1ccccc1-c1cc(-c2nnn[nH]2)sc1-c1ccccc1OC(F)(F)F [DNM0550, 5-(4,5-Bis(2-(trifluoromethoxy)phenyl)thiophen-2-yl)-1H-tetrazole] | 47.8 | 0.39 | > 125 | 30 (≈ 14.2 µg/mL) | – | – | – | – |
| c1ccc(-c2cc(-c3nnn[nH]3)sc2-c2ccccc2-c2ccsc2)c(-c2ccsc2)c1 [DNM0559, 5-(4,5-Bis(2-(thiophen-3-yl)phenyl)thiophen-2-yl)-1H-tetrazole] | 7.01 | 0.5 | > 125 | 2 (≈ 0.937 µg/mL) | – | – | – | – |
| c1ccc(-c2cc(-c3nnn[nH]3)sc2-c2ccccc2-c2ccoc2)c(-c2ccoc2)c1 [DNM0560, 5-(4,5-Bis(2-(furan-3-yl)phenyl)thiophen-2-yl)-1H-tetrazole] | 63.6 | 0.06 | > 125 | 15 (≈ 6.55 µg/mL) | – | – | – | – |
| Cc1ccc(-c2cc(-c3nnn[nH]3)sc2-c2ccc(C)cc2Cl)c(Cl)c1 [DNM0563, 5-(4,5-Bis(2-chloro-4-methylphenyl)thiophen-2-yl)-1H-tetrazole] | 15.1 | 0.56 | 125 (≈ 50.2 µg/mL) | 8 (≈ 3.21 µg/mL) | – | – | – | – |
| COc1c(C)cc(-c2cc(-c3nnn[nH]3)sc2-c2cc(C)c(OC)c(C)c2)cc1C [DNM0564, 5-(4,5-Bis(4-methoxy-3,5-dimethylphenyl)thiophen-2-yl)-1H-tetrazole] | 47.6 | 0.75 | > 125 | 15 (≈ 6.31 µg/mL) | – | – | – | – |
| COc1ccc(-c2cc(-c3nnn[nH]3)sc2-c2ccc(OC)c(Cl)c2)cc1Cl [DNM0565, 5-(4,5-Bis(3-chloro-4-methoxyphenyl)thiophen-2-yl)-1H-tetrazole] | 22.9 | 0.11 | > 125 | 15 (≈ 6.5 µg/mL) | – | – | – | – |
| c1ccc(C2CC2)c(-c2cc(-c3nnn[nH]3)sc2-c2ccccc2C2CC2)c1 [DNM0570] | – | – | – | – | 33.7 | 0.19 | 125 (≈ 48.1 µg/mL) | 15 (≈ 5.77 µg/mL) |
| Brc1ccccc1-c1sc(-c2nnn[nH]2)cc1-c1ccccc1C1CCCC1 [DNM0571] | – | – | – | – | 8.19 | 0.11 | >125 | 8 (≈ 3.61 µg/mL) |
| Cc1ccc(-c2sc(-c3nnn[nH]3)cc2-c2ccc(Cl)cc2)c2ccccc12 [DNM0572, 5-(4-(4-Chlorophenyl)-5-(4-methylnaphthalen-1-yl)thiophen-2-yl)-1H-tetrazole] | 4.41 | 0.51 | > 125 | 8 (≈ 3.22 µg/mL) | – | – | – | – |
| Cc1ccc(C2(c3cccc(Cl)c3)C=C(c3nnn[nH]3)SC2)c2ccccc12 (stereo not drawn) [DNM0575, 5-(4-(5-Chlorophenyl)-4-(4-methylnaphthalen-1-yl)thiophen-2-yl)-1H-tetrazole] | 5.86 | 0.23 | > 125 | 8 (≈ 3.24 µg/mL) | – | – | – | – |
